The test system of this data set is mouse established cell line L929. In words: Cytotoxicity test (neutral red uptake, NR50). The data set is classed as cell-based. The settings on record: L929 cells, 2 days incubation with sample; concentration at which 50% of the cells are killed. As for the experimental part:
The cytotoxicity test was made according to methods described in J. Biomed. Mater. Res. 29, 829-835 (1995) and by use of a mouse established cell line L929. In detail, cell dispersion was prepared to be 10,000 cells/mL; and 0.1 mL of the cell dispersion was sowed in each well of the 96-well culture plate and incubated at 37° C. for 3 days. Subsequently, each of the aqueous solutions mentioned above was diluted to one of various concentrations, and was charged into respective well by 0.1 mL. Then, incubation was further continued for 2 days. Subsequently, 0.1 mL of neural red culture-medium solution as prepared as 150 microgram/mL was added into the each well; and the incubation was made at 37° C. for 3 hours. After the incubation, culture medium was removed; and the cells were fixed by 1 wt % glutaraldehyde aqueous solution and thereafter air-dried. Subsequently, 0.1 mL of water/ethanol solution (equal-volume mixture) having 1 wt % of acetic acid was added; and then neural red molecules that had been taken into the cells were extracted. Light absorbency at 541 nm was measured and NR50 values were obtained from result of this measurement. The NR50 value indicates a concentration at which 50% of the cells are killed. The smaller the NR50 value becomes, the larger becomes the toxicity.

For `O=CCCCC=O` [Glutaraldehyde], the NR50 value was found to be 3.9 ± 0.7 µg/mL.
Compound `C=O` [Formaldehyde] had an NR50 value of 1.7 ± 02 µg/mL.

For the origin of these results see US7834065B2, “Medical-use two part reactive adhesive and medical-use resin having self-degradation property” (BMG Incorporated, priority 2006, dated 2010).
